Measured values published in US20250177425A1, “SAIKOSAPONIN C AS COMPOSITION FOR TREATING OR PREVENTING AGE-RELATED VASCULAR DISEASES INCLUDING ARTERIOSCLEROSIS” (AGINGTARGET, INC., priority 2022, published 2025).

Assays:
NLRP3 inflammasome [1] = target: T1, NLRP3 inflammasome (Homo sapiens, UniProt Q96P20); test: NLRP3 inflammasome activity: IL-1β secretion (Solid Phase Sandwich ELISA); details: PMA-differentiated THP-1 macrophages; 20 μM pretreatment 2 hours, MSU 200 μg/ml 6 hours
[2] = system: THP-1 cells differentiated into macrophages; test: Macrophage foam cell formation by ox-LDL (Oil Red O staining); format: cell-based, human; details: PMA-differentiated THP-1 macrophages; 5 μM and 20 μM pretreatment 2 hours, ox-LDL 100 μg/ml 24 hours
Method: The differentiated macrophages were pretreated with Saikosaponin C at concentrations of 5 μM and 20 μM for 2 hours, and then treated with oxidized LDL (ox-LDL) (100 μg/ml), a foam cell inducer, for 24 hours. Then, the formation of foam cells from macrophages was observed. The foam cell formation was evaluated by microscopic analysis after Oil Red O staining of adsorbed lipid molecules and absorbance analysis using a microplate reader.
The nucleus was stained with hematoxylin dye for 1 minute.

HUVEC [3] = test: Trypan blue staining, viable cell count under high glucose; format: cell-based, human; details: 5 μM and 20 μM pretreatment 2 hours, 33 mM high glucose 1 week, dose-dependent
Method: (§1) Similar to Experimental Example 1, a high-fat diet evaluation system at the cell level was established.
(§2) Specifically, two types of vascular endothelial cells, namely, HUVEC and HPAEC cells, were pretreated with Saikosaponin C at concentrations of 5 μM and 20 μM for 2 hours, and then treated with high glucose at a concentration of 33 mM for 1 week. The number of viable cells was then analyzed by Trypan blue staining. The number of viable cells was based on the number of cells in the control group (none) set to “100”.

HPAEC = test: as above; format: cell-based, human; details: 5 μM and 20 μM pretreatment 2 hours, 33 mM high glucose 1 week, dose-dependent
Method: as §1, §2

HUVEC [4] = test: Mechanism study: SA-β-gal staining with NOS and Sirt1 inhibitors; format: cell-based, human; details: 20 μM pretreatment 2 hours, 33 mM high glucose 72 hours
Method: Similar to Experimental Example 1, a high-fat diet evaluation system at the cellular level was established. Specifically, […], which are vascular endothelial cells, were pretreated with Saikosaponin C at a concentration of 20 μM for 2 hours, and then treated with high glucose at a concentration of 33 mM for 72 hours (for SA-β-gal staining) or 36 hours (for the analysis of enzyme activity of NOS and Sirt1). Then, SA-β-gal staining, NOS enzyme activity, and Sirt1 enzyme activity were analyzed. To analyze whether or not NOS and Sirt1 protein are involved in the anti-vascular aging effect of Saikosaponin C and the relationship between NOS and Sirt1 protein, L-NG-nitro arginine methyl ester (L-NAME) (5 mM), an inhibitor of NOS, and EX-527 (10 μM), an inhibitor of Sirt1 protein, were used. […] The senescence of vascular endothelial cells was assessed through intracellular SA-β-gal staining (FIG. 8A). The activities of NOS (FIG. 8B) and Sirt1 protein (FIG. 8C) were measured using the NOS Activity Assay Kit and the Sirt1 Activity Assay Kit, respectively.

AoSMC = test: Wound healing and transwell migration assay, PDGF-BB-induced; format: cell-based, human; details: 5 μM and 20 μM pretreatment 2 hours, PDGF-BB 20 ng/ml 24 hours
Method: (§3) Specifically, two types of vascular smooth muscle cells, namely, AoSMC (human aortic smooth muscle cells) and CASMC (human coronary artery smooth muscle cells), were pretreated with Saikosaponin C at concentrations of 5 μM and 20 μM for 2 hours, and then treated with PDGF-BB (20 ng/ml), a platelet-derived growth factor (PDGF), for 24 hours. Then, the proliferation and migration of vascular smooth muscle cells were observed. A wound healing assay was performed to observe the proliferation and migration of vascular smooth muscle cells, and a transwell migration assay was performed to observe the migration ability of vascular smooth muscle cells.
(§4) FIGS. 10A and 10B show the results of evaluating the proliferation and migration of vascular smooth muscle cells (AoSMC, CASMC) through a scratch wound healing assay. FIGS. 10C and 10D show the results of analyzing the cell migration ability of the same cells using a Transwell migration chamber with a pore size of 8.0 μm.

CASMC = test: as above; format: cell-based, human; details: 5 μM and 20 μM pretreatment 2 hours, PDGF-BB 20 ng/ml 24 hours
Method: as §3, §4

NLRP3 inflammasome [5] = target: T1, NLRP3 inflammasome; test: NLRP3 inflammasome activity: caspase-1 cleavage (Western blotting); details: PMA-differentiated THP-1 macrophages; 20 μM pretreatment 2 hours, MSU 200 μg/ml 6 hours
Sirt1 in HPAEC = test: Sirt1 activity assay kit and Western blotting (expression, phosphorylation); format: cell-based, human; details: 5 μM and 20 μM pretreatment 2 hours, 33 mM high glucose 36 hours, dose-dependent
Method: (§5) Similar to Experimental Example 1, a high-fat diet evaluation system at the cellular level was established.
(§6) Specifically, two types of vascular endothelial cells, namely, HUVEC and HPAEC cells, were pretreated with Saikosaponin C at concentrations of 5 μM and 20 μM for 2 hours, and then treated with high glucose at a concentration of 33 mM for 36 hours. Then, Sirt1 activity, protein expression and phosphorylation levels were analyzed.
(§7) Sirt1 activity was measured using the Sirt1 Activity Assay Kit (FIG. 7A and FIG. 7B), and Sirt1 protein expression and phosphorylation (Ser27, Ser47) were measured through Western blotting (FIG. 7C and FIG. 7D).

Sirt1 in HUVEC = test: as above; format: cell-based, human; details: 5 μM and 20 μM pretreatment 2 hours, 33 mM high glucose 36 hours, dose-dependent
Method: as §5, §6, §7

[6] = system: PAI-1, ICAM-1, and VCAM-1 in HUVEC; test: Western blotting of vascular senescence marker proteins; format: cell-based, human; details: 5 μM and 20 μM pretreatment 2 hours, 33 mM high glucose 48 hours, dose-dependent
Method: as §5
(§8) Specifically, two types of vascular endothelial cells, namely, HUVEC and HPAEC cells, were pretreated with Saikosaponin C at concentrations of 5 μM and 20 μM for 2 hours, and then treated with high glucose at a concentration of 33 mM for 72 hours (for SA-β-gal staining) or 48 hours (for vascular senescence marker protein analysis). Then, the degree of cellular senescence was measured through SA-β-gal staining and measured as the ratio of the total cells to cells stained in blue (SA-β-gal positive). In addition, the expression of vascular senescence marker proteins such as PAI-1, ICAM-1, and VCAM-1 was analyzed.
(§9) Specifically, the senescence of vascular endothelial cells was evaluated by SA-β-gal staining to measure the activity of β-galactosidase, which is an enzyme present in the lysosome, an organelle within the cell (FIG. 3C and FIG. 3D) and this was represented as a graph (FIG. 3A and FIG. 3B). In addition, FIGS. 3E and 3F show the results of Western blotting to determine the expression of vascular senescence marker proteins such as PAI-1, ICAM-1, and VCAM-1 in two types of vascular endothelial cells (HUVEC, HPAEC).

[7] = system: PAI-1, ICAM-1, and VCAM-1 in HPAEC; test: as above; format: cell-based, human; details: 5 μM and 20 μM pretreatment 2 hours, 33 mM high glucose 48 hours, dose-dependent
Method: as §5, §8, §9

T1 sequence (Q96P20 whole entry): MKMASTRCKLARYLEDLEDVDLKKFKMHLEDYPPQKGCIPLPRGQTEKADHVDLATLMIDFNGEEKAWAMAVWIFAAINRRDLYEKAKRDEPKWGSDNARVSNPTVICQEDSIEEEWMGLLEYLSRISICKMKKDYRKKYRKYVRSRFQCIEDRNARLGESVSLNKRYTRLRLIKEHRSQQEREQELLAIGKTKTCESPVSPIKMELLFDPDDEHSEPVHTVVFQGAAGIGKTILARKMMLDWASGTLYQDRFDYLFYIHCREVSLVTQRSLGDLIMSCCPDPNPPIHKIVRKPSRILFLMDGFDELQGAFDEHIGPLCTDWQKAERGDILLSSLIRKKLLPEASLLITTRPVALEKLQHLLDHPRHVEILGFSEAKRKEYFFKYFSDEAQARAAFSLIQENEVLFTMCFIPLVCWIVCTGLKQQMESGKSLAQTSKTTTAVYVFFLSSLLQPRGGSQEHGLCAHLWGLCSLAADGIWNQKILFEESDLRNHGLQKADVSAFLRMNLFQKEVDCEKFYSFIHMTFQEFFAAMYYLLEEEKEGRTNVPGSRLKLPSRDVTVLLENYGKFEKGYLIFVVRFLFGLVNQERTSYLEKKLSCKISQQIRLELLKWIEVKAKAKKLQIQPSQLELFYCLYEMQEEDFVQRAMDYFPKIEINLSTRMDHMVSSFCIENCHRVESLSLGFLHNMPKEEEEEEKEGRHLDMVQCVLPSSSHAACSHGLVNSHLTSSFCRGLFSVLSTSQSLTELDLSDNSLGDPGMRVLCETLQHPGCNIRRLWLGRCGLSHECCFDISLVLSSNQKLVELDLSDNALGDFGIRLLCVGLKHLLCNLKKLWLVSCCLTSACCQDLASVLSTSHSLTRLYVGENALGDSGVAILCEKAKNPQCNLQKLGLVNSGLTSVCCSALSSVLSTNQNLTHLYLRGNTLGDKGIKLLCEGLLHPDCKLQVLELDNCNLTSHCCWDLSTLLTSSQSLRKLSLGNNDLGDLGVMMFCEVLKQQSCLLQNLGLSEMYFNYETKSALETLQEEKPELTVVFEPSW

CC1O[C@@H](O[C@@H]2C(CO[C@@H]3OC(CO)[C@@H](O)C(O)C3O)O[C@@H](O[C@H]3CC[C@]4(C)[C@H]5C=C[C@]67OC[C@@]8(CCC(C)(C)C[C@H]86)[C@@H](O)C[C@@]7(C)[C@]5(C)CC[C@H]4C3(C)C)C(O)C2O)C(O)C(O)[C@H]1O (stereo partly drawn) [Saikosaponin C]
IL-1β secretion (NLRP3 inflammasome [1]): inhibited | foam cell formation by lipid deposition (Oil Red O) [2]: suppressed | high glucose-induced cell growth inhibition (number of viable cells, Trypan blue) (HUVEC [3]): significantly alleviated | high glucose-induced cell growth inhibition (number of viable cells, Trypan blue) (HPAEC): significantly alleviated | high glucose-induced SA-β-gal positive HUVEC cells (HUVEC [4]): reduced | PDGF-BB-increased proliferation and migration of vascular smooth muscle cells (AoSMC): not inhibited | PDGF-BB-increased proliferation and migration of vascular smooth muscle cells (CASMC): not inhibited | caspase-1 cleavage (NLRP3 inflammasome [5]): inhibited | high glucose-induced decrease in Sirt1 enzyme activity, protein expression, and phosphorylation (Sirt1 in HPAEC): significantly alleviated | high glucose-induced decrease in Sirt1 enzyme activity, protein expression, and phosphorylation (Sirt1 in HUVEC): significantly alleviated | expression of vascular senescence marker proteins PAI-1, ICAM-1, and VCAM-1 [6]: reduced | expression of vascular senescence marker proteins PAI-1, ICAM-1, and VCAM-1 [7]: reduced
